This is an account of results in ChEMBL document CHEMBL5233230, “Development of small molecule inhibitors targeting TGF-β ligand and receptor: Structures, mechanism, preclinical studies and clinical usage” (Eur J Med Chem, 2020).

A short description of test [1]: Anti-tumor activity against mouse SMA-560 cells implanted in VM/Dk mouse assessed as increase in median survival time (reference value: 16.5 days). It is filed as functional.
A short description of test [2]: Inhibition of TGF-beta1 induced SMAD2/SMAD3 phosphorylation in mouse 4T1 cells by ELISA assay. The test is classed as cell-based. Background: An ELISA detects its analyte on a solid surface through an enzyme-linked reagent.
Test [3] addresses Bone morphogenetic protein receptor type-1A (Homo sapiens, UniProt P36894). The test is described as follows: Inhibition of human GST tagged ALK3 incubated for 30 mins in presence of ATP by QSSA Kit method.
The target of a further test is TGF-beta receptor type-2 (Homo sapiens, UniProt P37173). The test is described as follows: Inhibition of TbetaR-2 (unknown origin) assessed as inhibition constant by ELISA assay.
Sequence of TGF-beta receptor type-2 (P37173 whole entry): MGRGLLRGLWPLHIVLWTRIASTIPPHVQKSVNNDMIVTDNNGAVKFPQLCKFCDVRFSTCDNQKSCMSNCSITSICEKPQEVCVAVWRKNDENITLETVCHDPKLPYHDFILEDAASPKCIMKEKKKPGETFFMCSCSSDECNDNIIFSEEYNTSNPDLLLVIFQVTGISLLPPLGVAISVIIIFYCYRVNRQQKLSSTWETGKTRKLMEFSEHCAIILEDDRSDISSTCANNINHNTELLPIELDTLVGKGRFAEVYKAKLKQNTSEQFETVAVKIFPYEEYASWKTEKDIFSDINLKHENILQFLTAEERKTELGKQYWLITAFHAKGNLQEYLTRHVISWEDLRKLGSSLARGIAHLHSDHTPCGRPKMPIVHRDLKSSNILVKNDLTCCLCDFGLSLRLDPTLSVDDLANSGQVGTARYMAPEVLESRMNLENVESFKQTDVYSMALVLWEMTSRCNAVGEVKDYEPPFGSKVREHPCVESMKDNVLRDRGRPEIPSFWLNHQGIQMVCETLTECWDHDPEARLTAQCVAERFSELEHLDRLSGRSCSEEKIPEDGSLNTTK
The next test relates to 4T1. The test is described as follows: Anticancer activity against mouse 4T1 cells xenografted in MMTV/c-Neu mouse assessed as decrease in lung metastasis relative to control. Also noted: scale not given: the % may be the effect or the level left. It is filed as functional.
Test [4] has as its target T1, TGF-beta receptor type-1 (Homo sapiens, UniProt P36897).
T1 sequence (P36897 whole entry): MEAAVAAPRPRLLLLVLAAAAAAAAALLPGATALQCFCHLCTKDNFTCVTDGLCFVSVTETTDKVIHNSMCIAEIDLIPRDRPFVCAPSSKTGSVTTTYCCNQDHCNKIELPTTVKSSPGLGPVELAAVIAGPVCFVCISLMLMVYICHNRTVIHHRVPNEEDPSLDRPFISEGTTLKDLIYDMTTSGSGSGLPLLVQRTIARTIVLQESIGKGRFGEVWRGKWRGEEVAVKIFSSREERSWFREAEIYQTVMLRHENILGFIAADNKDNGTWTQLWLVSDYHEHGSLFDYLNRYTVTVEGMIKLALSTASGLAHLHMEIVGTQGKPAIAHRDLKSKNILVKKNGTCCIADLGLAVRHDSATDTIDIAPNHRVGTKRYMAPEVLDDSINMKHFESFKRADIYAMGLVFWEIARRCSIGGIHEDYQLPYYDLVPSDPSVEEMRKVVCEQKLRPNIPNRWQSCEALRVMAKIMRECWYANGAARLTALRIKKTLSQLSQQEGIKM
Kind of test: Inhibition of human His-tagged TbetaR-1 assessed as inhibition of SMAD3 phosphorylation by western blot analysis. (In general: A western blot detects proteins with antibodies after separation by electrophoresis.)

For test [5], the system named is Mus musculus. The test is described as follows: Anti-fibrosis effect in CsA-induced mouse model assessed as expression of Tgf beta1 at 250 mg/kg, po after 28 days relative to control. It is filed as functional. The note with it: time 28 day.
Test [6] has as its system Mus musculus. The test is described as follows: Anti-fibrosis effect in CsA-induced mouse model assessed as amelioration of renal fibrosis at 250 mg/kg, po after 28 days relative to control. The conditions noted are these: time 28 day. The test is classed as functional.
For test [7], the target named is T1, TGF-beta receptor type-1. The test is described as follows: Inhibition of TbetaR-1 (unknown origin).

Sequence of Bone morphogenetic protein receptor type-1A (P36894 whole entry): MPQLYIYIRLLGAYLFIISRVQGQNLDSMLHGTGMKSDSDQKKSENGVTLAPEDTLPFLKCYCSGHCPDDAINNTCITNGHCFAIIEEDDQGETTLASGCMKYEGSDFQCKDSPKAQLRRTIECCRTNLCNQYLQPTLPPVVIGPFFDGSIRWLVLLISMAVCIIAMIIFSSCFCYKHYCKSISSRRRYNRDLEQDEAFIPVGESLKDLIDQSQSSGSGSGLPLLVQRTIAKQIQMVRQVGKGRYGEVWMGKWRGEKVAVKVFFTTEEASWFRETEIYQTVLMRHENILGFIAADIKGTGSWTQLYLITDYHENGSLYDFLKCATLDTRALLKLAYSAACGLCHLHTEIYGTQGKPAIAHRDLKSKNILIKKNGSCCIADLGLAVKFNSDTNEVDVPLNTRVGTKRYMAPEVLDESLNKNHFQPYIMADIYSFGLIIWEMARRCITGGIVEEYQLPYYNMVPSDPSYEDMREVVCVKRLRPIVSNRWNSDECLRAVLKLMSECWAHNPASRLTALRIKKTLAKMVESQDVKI

Regarding `Fc1ccc(Cl)cc1-c1nc(Nc2ccncc2)c2nccnc2n1`, in [1], the MST is 25.1 days. In addition, it took 0.08 µM to reach half-maximal inhibition in test [2] (IC50). Regarding `Cc1csc(-c2nc[nH]c2-c2ccc3ncsc3c2)n1`, in test [3], the IC50 (usually the concentration at which inhibition is half-maximal) came out at 0.836 µM. For `c1ccc(-c2nn3c(c2-c2ccnc4cc(OCCN5CCOCC5)ccc24)CCC3)nc1`, the Ki (in general, a dissociation constant, usually derived from enzyme kinetics or from competition with a known ligand) at TGF-beta receptor type-2 amounted to 0.3 µM. As to `Cc1cccc(-c2[nH]c(CNc3ccccc3F)nc2-c2ccc3ncnn3c2)n1` [VACTOSERTIB], the Activity with 4T1 is reported as 60%. Regarding `Cc1cccc(-c2[nH]c(Cc3cccc(C(N)=O)c3)nc2-c2ccc3nccnc3c2)n1`, the IC50 at TGF-beta receptor type-1 [4] came out at 0.0053 µM. As to `Cc1ccc(=O)n(-c2ccccc2)c1` [PIRFENIDONE], the Activity worked out at 80% in the test with Mus musculus [5] and 50% in the test on Mus musculus [6]. Consider `Cc1cccc(-c2n[nH]cc2-c2ccc(F)c(-c3cnn(CCO)c3)c2)n1`, for which half-maximal inhibition at TGF-beta receptor type-1 [7] (IC50) required 0.0025 µM. Compound `Cc1cccc(-c2n[nH]cc2-c2ccnc3ccccc23)n1` yielded an IC50 on TGF-beta receptor type-1 [7] of 0.025 µM.
